The source of these data is patent US11584727B2, “2-thioxothiazolidin-4-one derivatives active as transthyretin ligands and uses thereof” (BSIM Therapeutics, S.A., priority 2014, dated 2023).

Series [1] deals with T1, wild type transthyretin (WT-TTR) (Homo sapiens, UniProt P02766).
T1 construct: made in house; host or cells: E. coli BL21 (DE3), pET23a plasmid
Description: WT-TTR amyloid fibril formation assay (turbidimetry, acid-induced). In kind it is biochemical. The settings on record: pH 4.4, 72 hours; for Fibril Formation (%): WT-TTR 3.6 μM, 1:1 TTR-compound stoichiometry, 37° C., normalized to no-compound control (100%); for IC50: WT-TTR fixed at 3.6 μM, ten compound concentrations. As to the method: (§1) The first set of evaluations is based on a fast, stagnant fibril formation assay that is used for the early screening of compounds, be they virtual screening hits or newly synthesized analogues. In this assay, a solution of the compound under test at 1.8, 3.6 or 7.2 μM is added to a solution of TTR at 3.6 μM, so that there is enough compound to bind to either one or both of TTR's binding sites. The pH of the resulting solution is then lowered to 4.4 to promote amyloidogenesis. The process of amyloid fibril formation over time is assessed by turbidimetry measurements at three different wavelengths (405, 450 and 490 nm, or at 550, 600 and 650 nm when the compound absorbs light at the previous wavelengths), using a spectrophotometer endowed with a BioTek microplate reader. The extent of fibril formation of each mixture is determined by normalizing a sample with the protein (TTR), in absence of compounds, which, at the end of 72 hours, represents 100% of amyloid fibril formation. In each experiment, each compound concentration is tested in triplicate. For each compound concentration and incubation time, the arithmetic mean of the triplicate experiments is calculated, as well as the arithmetic mean of the three measured wavelengths. High activity can be defined as a percentage of fibril formation below 10% at compound concentration 7.2 μM (TTR:compound stoichiometry 1:2) and below 40% at 3.6 μM (TTR:compound stoichiometry 1:1).
The in vitro activity of the compounds was assessed through a biochemical assay based on turbidimetry measurements, in which fibril formation is induced by acidification of the solution to pH 4.4 after incubation with the hit compound to be tested. The amount of amyloid fibrils formed is then monitored throughout 72 hours. Further details on this assay are provided in the “Evaluation of amyloid inhibition in vitro” subsection in “Materials and Methods”.
Experimental evaluation of the in vitro activity of virtual screening hits against amyloid fibril formation by TTR was carried out using a biochemical assay based on turbidimetry measurements. In this assay, fibril formation is induced by acidification of the solution to pH 4.4 after incubation with the hit compound to be tested. The amount of amyloid fibrils formed is monitored over 72 hours. Further details on the assay are provided in the “Evaluation of amyloid inhibition in vitro” subsection below.
(§2) Purchased virtual screening hits and all synthesized (optimization) derivatives were dissolved in DMSO to a final concentration of 10.8 mM to provide a primary stock solution. Several secondary stock solutions were prepared in DMSO by dilution of the primary stock solution and the concentrations were chosen depending on the effectiveness of the compound in inhibiting the TTR amyloid fibril formation.
(§3) The fibril formation assay was adapted to run in a high-throughput screening mode. For this purpose, 96-well microplates were used with a final assay volume of 100 μL.
(§4) One microLitre (μL) of different compound secondary stock solutions was added to 50 μL of a 7.2 μM wild type TTR (WT-TTR) or Val122Ile-TTR (V122I-TTR) solutions in 10 miliMolar (mM) sodium phosphate buffer, 100 mM KCl and 1 mM EDTA, pH 7.2, previously dialyzed against the same buffer solution. After 30 minutes of incubation at room temperature, the pH of the mixture was lowered to 4.4 with 49 μL of 200 mM acetate buffer, 100 mM KCl and 1 mM EDTA, pH 4.3.
The mixtures were incubated at 37° C. during 72 hours. Turbidity at 405 nm, 450 nm and 490 nm (or at 550, 600 and 650 nm when the test compound absorbs light at the previous wavelengths) was measured over time (0, 17, 24, 41, 48, 65 and 72 hours) using a BioTek Microplate Spectrophotometer to evaluate the extent of fibril formation. Immediately before the turbidity measurements, the mixtures were gently shacked during 1 minute to homogenize well and not damage the formed amyloid aggregates and fibrils.

Series [2] concerns the target Val122Ile transthyretin (V122I-TTR) (Homo sapiens, UniProt P02766, V142I). In words: V122I-TTR amyloid fibril formation assay (turbidimetry, acid-induced). The settings on record: pH 4.4, 72 hours; for Fibril Formation (%): V122I-TTR 3.6 μM, 37° C.; for IC50: V122I-TTR fixed at 3.6 μM, ten compound concentrations. In kind it is biochemical. How it is done:
as §1, §2, §3, §4
The mixtures were incubated at 37° C. during 72 hours. Turbidity at 405 nm, 450 nm and 490 nm (or at 550, 600 and 650 nm when the test compound absorbs light at the previous wavelengths) was measured over time (0, 17, 24, 41, 48, 65 and 72 hours) using a BioTek Microplate Spectrophotometer to evaluate the extent of fibril formation. Immediately before the turbidity measurements, the mixtures were gently shacked during 1 minute to homogenize well and not damage the formed amyloid aggregates and fibrils. The final turbidity was calculated as an average of the three wavelengths measured.
In addition, control samples containing TTR with no inhibitor and 1% DMSO, as well as inhibitor in absence of TTR were tested and analyzed.
The extent of amyloid fibril formation data was normalized to TTR in the absence of inhibitor, assigned to be 100% fibril formation (or 0% amyloid inhibition) at the end of the experiment.
The extent of amyloid fibril formation throughout 72 hours was determined as described in the “Evaluation of amyloid inhibition in vitro” subsection above.
IC50 values were calculated from the inhibition curves obtained by fitting the values by a nonlinear curve method using the OriginPro7 (OriginLab Corporation, USA).

Broadly, the IC50 is the concentration needed to halve the response being measured. High values mean a need for much substance, low ones inhibition by little substance. For orientation: melting point means the temperature, or range, at which the solid turns liquid.

Consider `O=C(O)CN1C(=O)/C(=C/c2cc(O)c(O)c(Cl)c2)SC1=S` [AT50-A01, (Z)-5-(3′-chloro-4′,5′-dihydroxyphenylmethylidene)-3-hydroxycarbonylmethyl-2-thioxothiazolidin-4-one], for which the melting point was in the range of 241 to 242 °C. In series [1], the “Fibril Formation (%)” value is on record as 12% and 1.45 ± 0.04 µM corresponded to half-maximal inhibition (IC50). For the same compound, in series [2], the “Fibril Formation (%)” value is on record as 29% and it took 2.34 µM to reach half-maximal inhibition (IC50).

The compound `O=C(O)CN1C(=O)/C(=C/c2cc(Cl)cc(Cl)c2)SC1=S` [AT50-A05, (Z)-3-hydroxycarbonylmethyl-5-(3′,5′-dichlorophenylmethylidene)-2-thioxothiazolidin-4-one] yielded a melting point of 272 to 273 °C. Moreover, in series [1], the “Fibril Formation (%)” value was 17% and half-maximal inhibition (IC50) was put at 1.62 ± 0.13 µM. For the same compound, in series [2], the “Fibril Formation (%)” value was determined as 28% and the IC50 was 2.32 µM.

Compound `O=C(O)CN1C(=O)/C(=C/c2cc(F)cc(F)c2)SC1=S` [AT50-A12, (Z)-3-hydroxycarbonylmethyl-5-(3′,5′-difluorophenylmethylidene)-2-thioxothiazolidin-4-one] returned a melting point of 225 to 227 °C. In series [1], the “Fibril Formation (%)” value amounted to 44% and inhibition was half-maximal at 2.88 ± 0.24 µM (IC50). Further, in series [2], the “Fibril Formation (%)” value is reported as 91% and the IC50 amounted to 7.8 µM.

The compound `Cc1cc(/C=C2\SC(=S)N(CC(=O)O)C2=O)cc(C)c1O` [AT50-A17, (Z)-3-hydroxycarbonylmethyl-5-(4′-hydroxy-3′,5′-dimethylphenylmethylidene)-2-thioxothiazolidin-4-one] showed a melting point of 261 to 263 °C. Moreover, in series [1], the “Fibril Formation (%)” value is on record as 27% and the half-maximal inhibitory concentration (IC50) was determined as 2.37 ± 0.47 µM. Also, in series [2], the “Fibril Formation (%)” value was determined as 51% and the IC50 amounted to 3.16 µM.

As to `O=C(O)CCCN1C(=O)/C(=C/c2cc(F)c(O)c(F)c2)SC1=S` [AT50-C09, (Z)-5-(3′,5′-difluoro-4′-hydroxyphenylmethylidene)-3-(3′-hydroxycarbonylpropyl)-2-thioxothiazolidin-4-one], the melting point lay in the range of 207 to 209 °C. Moreover, in series [1], the “Fibril Formation (%)” value turned out to be 33% and the IC50 turned out to be 2.45 ± 0.35 µM. Besides, in series [2], the “Fibril Formation (%)” value stood at 48% and the IC50 amounted to 3.19 µM.

`O=C(O)CCCN1C(=O)/C(=C/c2cc(Cl)c(O)c(Cl)c2)SC1=S` [AT50-C10, (Z)-5-(3′,5′-dichloro-4′-hydroxyphenylmethylidene)-3-(3′-hydroxycarbonylpropyl)-2-thioxothiazolidin-4-one] gave a melting point of 247 to 249 °C. For the same compound, in series [1], the “Fibril Formation (%)” value stood at 27% and the half-inhibitory concentration (IC50) was 1.87 ± 0.16 µM. Besides, in series [2], the “Fibril Formation (%)” value is 37% and the half-inhibitory concentration (IC50) was 2.46 µM.

Take `Cc1cc(/C=C2\SC(=S)N(CCCC(=O)O)C2=O)cc(C)c1O` [AT50-C11, (Z)-5-(4′-hydroxy-3′,5′-dimethylphenylmethylidene)-3-(3′-hydroxycarbonylpropyl)-2-thioxothiazolidin-4-one]: the melting point fell in the range of 250 to 252 °C. Further, in series [1], the “Fibril Formation (%)” value is on record as 26% and the IC50 was 2.43 ± 1.25 µM. In series [2], the “Fibril Formation (%)” value came to 66% and the IC50 worked out at 4.52 µM.

Turning to `O=C(O)CCN1C(=O)/C(=C/c2cc(F)c(O)c(F)c2)SC1=S` [AT50-C13, (Z)-5-(3′,5′-difluoro-4′-hydroxyphenylmethylidene)-3-(2′-hydroxycarbonylethyl)-2-thioxothiazolidin-4-one], the melting point is 216 to 217 °C. In series [1], the “Fibril Formation (%)” value stood at 32% and the IC50 is 2.31 ± 0.45 µM. Besides, in series [2], the “Fibril Formation (%)” value is listed as 36% and the IC50 is 2.6 µM.

`O=C(O)CCN1C(=O)/C(=C/c2cc(Cl)cc(Cl)c2)SC1=S` [AT50-C14, (Z)-3-(2′-hydroxycarbonylethyl)-5-(3′,5′-dichlorophenylmethylidene)-2-thioxothiazolidin-4-one] displayed a melting point of 245 to 247 °C. Further, in series [1], the “Fibril Formation (%)” value is 26% and the IC50 worked out at 1.95 ± 0.26 µM. Besides, in series [2], the “Fibril Formation (%)” value is 55% and the IC50 amounted to 4.37 µM.

For the compound `O=C(O)CCN1C(=O)/C(=C/c2cc(Cl)c(O)c(Cl)c2)SC1=S` [AT50-C15, (Z)-3-(2′-hydroxycarbonylethyl)-5-(3′,5′-dichloro-4′-hydroxyphenylmethylidene)-2-thioxothiazolidin-4-one], the melting point fell in the range of 259 to 260 °C. The “inhibitory activity against TTR amyloid fibril formation compared with reference compounds (in words)” value in series [1] (TTR 3.6 μM) is “superior to that of 2OH-PCB80”. Further, in series [1], the “Fibril Formation (%)” value is 7% and the IC50 came to 1.03 ± 0.1 µM. Moreover, in series [2], the “Fibril Formation (%)” value is reported as 17% and half-maximal inhibition (IC50) was put at 1.62 µM.

For the compound `Cc1cc(/C=C2\SC(=S)N(CCC(=O)O)C2=O)cc(C)c1O` [AT50-C16, (Z)-3-(2′-hydroxycarbonylethyl)-5-(4′-hydroxy-3′,5′-dimethylphenylmethylidene)-2-thioxothiazolidin-4-one], the melting point was in the range of 253 to 254 °C. In series [1], the “Fibril Formation (%)” value is given as 24% and the IC50 came out at 2.29 ± 0.13 µM. Further, in series [2], the “Fibril Formation (%)” value is on record as 41% and the IC50 was determined as 2.71 µM.

With `Cc1cc(/C=C2\SC(=S)N(CCC(=O)O)C2=O)cc(O)c1O` [AT50-C20, (Z)-5-(3′,4′-dihydroxy-5′-methylphenylmethylidene)-3-(2′-hydroxycarbonylethyl)-2-thioxothiazolidin-4-one], the melting point was 221 to 222 °C. The “Fibril Formation (%)” value in series [1] was 39%.
